Experimental data from the supplement of paper PMC11208160.

Test: recombinant barcode read abundance after kanamycin selection (control-corrected) (log10(CPM+1)); higher = more efficient recombination; sequences stand for … in AGTGCAGAGAAAATCGGCCAGTTTTCTCTGCCTGCAGTCCGCATGCCGT…AGATTTATGCAGCGGACTGCCTTTCTCCCAAAGTGATAAACCGGACAGTATCATGGACCGGTTTTCCCGGTAATCCGTATTTGCAAGGTTGGTTTCACT; site = the 11-nt target
Outline: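 Recombination efficiency comes from barcode counts at recombinant junctions, converted to counts per million, averaged and corrected against the control. Values appear as log10(CPM+1). They were obtained from a pooled E. coli screen in which each oligo paired a target with an IS621 bridge RNA target-binding loop, and cells were plated in duplicate on chloramphenicol/ampicillin LB agar or on chloramphenicol/ampicillin/kanamycin with 0.1 mM IPTG.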
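Further: IS621 recombinase and bridge RNA in Escherichia coli cells.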

Row | Sequence | recombinant barcode read abundance (log10)
1 | TCTCGATCTTGGGTTCTAACCTGTTGCAT (site TCTCGATCTAT) | 0.273
2 | TCTCGTCCTTGGGTTCTAACCTGTTGCTA (site AGCAACACTCT) | 0.226
3 | TCTCGTCCTTGGGTTCTAACCTGTTGCTA (site TCTCGTCCTTA) | 0.0623
4 | TCTCTGCCTTGGGTTCTAACCTGTTGCCT (site TCTCAGCCTAG) | 0.277
5 | TCTCTGCCTTGGGTTCTAACCTGTTGCCT (site TCTCCGCCTAG) | 1.15
6 | TCTCTGCCTTGGGTTCTAACCTGTTGCCT (site TCTCGGCCTAG) | 0.108
7 | TCTCTGCCTTGGGTTCTAACCTGTTGCCT (site TCTCTGCCTAG) | 0.208
8 | TCTGAAACTTGGGTTCTAACCTGTTGCTT (site GACACCTCTCG) | 0.0724
9 | TCTGAAACTTGGGTTCTAACCTGTTGCTT (site TCTGAAACTAA) | 0.314
10 | TCTGAGGCTTGGGTTCTAACCTGTTGCTG (site TCAGAGGCTCA) | 0.263
11 | TCTGAGGCTTGGGTTCTAACCTGTTGCTG (site TCCGAGGCTCA) | 0.129
12 | TCTGAGGCTTGGGTTCTAACCTGTTGCTG (site TCGGAGGCTCA) | 0.0364
13 | TCTGAGGCTTGGGTTCTAACCTGTTGCTG (site TCTGAGGCTCA) | 0.455
14 | TCTGCGACTTGGGTTCTAACCTGTTGCCT (site TCAGCGACTAG) | 0.0737
15 | TCTGCGACTTGGGTTCTAACCTGTTGCCT (site TCCGCGACTAG) | 0.455
16 | TCTGCGACTTGGGTTCTAACCTGTTGCCT (site TCGGCGACTAG) | 0.114
17 | TCTGCGACTTGGGTTCTAACCTGTTGCCT (site TCTGCGACTAG) | 0.265
18 | TCTGGGGCTTGGGTTCTAACCTGTTGCCT (site ACTGGGGCTTG) | 0.0588
19 | TCTGGGGCTTGGGTTCTAACCTGTTGCCT (site TCTGGGGCTAG) | 0.0357
20 | TCTGGGGCTTGGGTTCTAACCTGTTGCGG (site TCTGGGGCTCA) | 0.376
21 | TCTGGGGCTTGGGTTCTAACCTGTTGCGG (site TCTGGGGCTCC) | 2.61
22 | TCTGGGGCTTGGGTTCTAACCTGTTGCGG (site TCTGGGGCTCG) | 0.271

Row | Sequence | recombinant barcode read abundance (log10)
23 | TCTGGGGCTTGGGTTCTAACCTGTTGCGG (site TCTGGGGCTCT) | 2.22
24 | TCTGTAACTTGGGTTCTAACCTGTTGCCT (site CAATCCTCTTA) | 0.183
25 | TCTGTAACTTGGGTTCTAACCTGTTGCCT (site TCTGTAACTAG) | 0.421
26 | TCTGTGTCTTGGGTTCTAACCTGTTGCTA (site ATATCAACTCG) | 0.0225
27 | TCTGTGTCTTGGGTTCTAACCTGTTGCTA (site TCTGTGTCTTA) | 1.46
28 | TCTTATACTTGGGTTCTAACCTGTTGCAT (site TCTTATACTAC) | 0.0107
29 | TCTTATACTTGGGTTCTAACCTGTTGCAT (site TCTTATACTAT) | 0.186
30 | TCTTGACCTTGGGTTCTAACCTGTTGCTT (site GGCACCACTCG) | 0.063
31 | TCTTGACCTTGGGTTCTAACCTGTTGCTT (site TCTTGACCTAA) | 0.242
32 | TCTTGCTCTTGGGTTCTAACCTGTTGCCT (site AGAACTCCTCA) | 0.102
33 | TCTTGCTCTTGGGTTCTAACCTGTTGCCT (site TCTTGCTCTAG) | 0.574
34 | TCTTGGACTTGGGTTCTAACCTGTTGCTT (site TCTTGGACTAA) | 0.421
35 | TCTTGGACTTGGGTTCTAACCTGTTGCTT (site TCTTGGACTCA) | 0.145
36 | TCTTGGACTTGGGTTCTAACCTGTTGCTT (site TCTTGGACTGA) | 0.0999
37 | TCTTGGACTTGGGTTCTAACCTGTTGCTT (site TCTTGGACTTA) | 0.138
38 | TCTTGGTCTTGGGTTCTAACCTGTTGCTA (site TCTTGGTCTTA) | 0.0413
39 | TCTTGGTCTTGGGTTCTAACCTGTTGCTA (site TTATGGTCTTA) | 0.208
40 | TCTTGTCCTTGGGTTCTAACCTGTTGCGA (site TCTTGTCCTAC) | 0.0306
41 | TCTTGTCCTTGGGTTCTAACCTGTTGCGA (site TCTTGTCCTCC) | 0.268
42 | TCTTGTCCTTGGGTTCTAACCTGTTGCGA (site TCTTGTCCTGC) | 0.343
43 | TCTTGTCCTTGGGTTCTAACCTGTTGCGA (site TCTTGTCCTTC) | 0.253
